pKi: −log10 of the molar value.
How the values were obtained:
5-HT2A receptor = target: T1, 5-HT2A receptor (Homo sapiens, UniProt P28223); test: 5-HT2A receptor radioligand competition assay (SPA, [3H]ketanserin); assay type: binding; conditions: 1 nM [3H]ketanserin; membranes containing 5-HT2A; read-out: 5-HT2A, Ki
T1 construct: purchased PerkinElmer ES-313-M400UA
Description: Competition assays were performed as for 5-HT1A assays with the following differences. […] Determination of non-specific binding was carried out in the presence of […] of spiperone (S7395-250MG, Sigma-Aldrich). Equilibrium binding constant for ketanserin (Kd) was determined from saturation binding curves using the ‘one-site saturation binding analysis’ method in GraphPad PRISM software (Version 9.2.0).

[1] = target: T2, human serotonin transporter (SERT) (Homo sapiens, UniProt P31645); test: biochemical; assay type: binding; conditions: 1 nM imipramine; membranes containing human SERT; read-out: SERT, Ki
T2 construct: purchased PerkinElmer RBHSTM400UA
T2 sequence (P31645 whole entry): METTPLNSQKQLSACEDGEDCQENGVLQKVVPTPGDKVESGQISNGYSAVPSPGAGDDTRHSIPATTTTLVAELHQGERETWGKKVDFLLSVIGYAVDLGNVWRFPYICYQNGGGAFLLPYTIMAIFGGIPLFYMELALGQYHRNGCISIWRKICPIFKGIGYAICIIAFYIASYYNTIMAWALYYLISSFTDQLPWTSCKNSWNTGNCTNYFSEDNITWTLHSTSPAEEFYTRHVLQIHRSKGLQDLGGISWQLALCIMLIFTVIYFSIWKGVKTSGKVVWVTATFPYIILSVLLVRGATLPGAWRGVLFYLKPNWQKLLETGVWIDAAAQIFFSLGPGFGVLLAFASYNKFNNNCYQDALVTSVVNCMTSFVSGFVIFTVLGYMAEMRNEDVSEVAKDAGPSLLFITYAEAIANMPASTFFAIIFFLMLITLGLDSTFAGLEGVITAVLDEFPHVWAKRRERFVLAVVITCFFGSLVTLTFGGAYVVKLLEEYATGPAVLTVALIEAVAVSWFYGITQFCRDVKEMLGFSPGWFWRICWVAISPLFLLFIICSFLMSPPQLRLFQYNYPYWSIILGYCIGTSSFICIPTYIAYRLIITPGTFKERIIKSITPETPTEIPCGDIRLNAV
Description: A commonly applied SERT binding assay involves competition binding assays employing radiolabelled ligands. […] Radioactive binding assays were carried out using the Scintillation Proximity Assay (SPA). For saturation binding assay, mixtures of 9 μg of membrane containing human SERT was pre-coupled to 1 mg of SPA beads at room temperature in a tube rotator for 1 hour in binding buffer (50 mM Tris-HCl pH7.4, 120 mM NaCl, 5 mM KCl, 1 mM ascorbic acid, 10 μM pargyline HCl). […] After incubation, the samples are read on a MicroBeta 2 Microplate Counter. Non-specific binding was carried out in the presence of 200 μM of clomipramine hydrochloride (C7291-1G, Sigma). Equilibrium binding constant for imipramine (KD) was determined from saturation binding curve using one-site saturation binding analysis from GraphPad PRISM software (Version 9.2.0). All test compounds were dissolved to 100 mM in DMSO and dilutions were carried out in assay buffer. […] Ki values were calculated from the competition displacement data using the competitive binding analysis from GraphPad PRISM software. […] Vehicle (DMSO) without drug was used as a negative control.

5-HT1A receptor = target: T3, 5-HT1A receptor (Homo sapiens, UniProt P08908); test: 5-HT1A receptor radioligand competition assay (SPA, [3H]8-hydroxy-DPAT); assay type: binding; conditions: 0.5 nM hot 8-hydroxy-DPAT; membranes containing 5-HT1A
T3 construct: purchased Perkin Elmer 6110501400UA
T3 sequence (P08908 1-422): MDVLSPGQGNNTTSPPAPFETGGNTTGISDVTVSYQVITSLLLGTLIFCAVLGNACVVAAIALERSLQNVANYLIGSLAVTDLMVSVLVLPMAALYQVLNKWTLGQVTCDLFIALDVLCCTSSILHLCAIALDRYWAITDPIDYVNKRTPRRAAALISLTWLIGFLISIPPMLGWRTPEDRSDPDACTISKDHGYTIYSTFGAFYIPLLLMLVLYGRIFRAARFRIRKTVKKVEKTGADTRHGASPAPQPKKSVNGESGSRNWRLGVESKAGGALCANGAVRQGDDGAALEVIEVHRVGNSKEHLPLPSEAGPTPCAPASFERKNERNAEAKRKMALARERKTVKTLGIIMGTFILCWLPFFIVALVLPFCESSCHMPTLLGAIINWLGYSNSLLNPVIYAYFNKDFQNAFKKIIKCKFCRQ
Description: 5-HT1A receptor. […] After incubation, the samples were read on a MicroBeta 2 Microplate Counter (perkinelmer.com). Non-specific binding was carried out in the presence of 100 μM of metergoline (M3668-500MG, Sigma-Aldrich). Equilibrium binding constant for 8-hydroxy-DPAT (KD) was determined from a saturation binding curve using one-site saturation binding analysis from GraphPad PRISM software (Version 9.2.0). Test compound was dissolved to 100 mM in dimethylsulfoxide (DMSO), and dilutions were carried out in assay buffer. […] Ki values were calculated from the competition displacement data using the competitive binding analysis from GraphPad PRISM software. […] Conversely, blank preparations lacking any drug (simply termed ‘DMSO’ samples) were used as negative controls, in addition to those containing tryptophan which is not known to bind the 5-HT1A receptor.

C57BL/6 mice = test: Mouse Head Twitch Response (HTR) assay to assess hallucinogenic potential; assay type: in vivo; conditions: for mean HTR / HTR compared with the HTR response for 5-Br-DMT (one-way ANOVA, Dunnett): 3 mg/kg i.p.; for mean HTR: 0-15 min interval (preliminary screening); for HTR compared with the HTR response for 5-Br-DMT (one-way ANOVA, Dunnett): alpha 0.05; for HTR: 0-15 min (dose curve)
Description: All experiments were approved by the University of Calgary Animal Care and Use Committee in accordance with Canadian Council on Animal Care guidelines. C57BL/6-Elite mixed sex mice were obtained from Charles River (8 weeks old). Until the first experiment, mice were group-housed, then single-housed on a 12:12 h light/dark schedule (lights on at 07:00 hours) with ad libitum access to food and water. Before any behavioral screening, mice were handled and exposed to the testing chamber for at least 5 min each day for three successive days and habituated to the experimental room 1 h before testing. The testing chamber was cleaned with a 70% ethanol solution between experiments to eliminate odor from other mice. Drug compounds (100 mM in DMSO) were diluted in sterile excipient (10% EtOH/15% PEG400 in ddH2O) to 3 mg/kg (preliminary screening) or 0.5, 2, 4, 7, and 10 mg/kg (dose-curve analysis) and administered using intraperitoneal (i.p.) drug injections. […] HTR was analyzed during the 0-to-15-minute window following drug administration. […] Mean HTR between 10 and 5 signifies reduced hallucinogenic potential relative to positive controls.

T1 sequence (P28223 whole entry): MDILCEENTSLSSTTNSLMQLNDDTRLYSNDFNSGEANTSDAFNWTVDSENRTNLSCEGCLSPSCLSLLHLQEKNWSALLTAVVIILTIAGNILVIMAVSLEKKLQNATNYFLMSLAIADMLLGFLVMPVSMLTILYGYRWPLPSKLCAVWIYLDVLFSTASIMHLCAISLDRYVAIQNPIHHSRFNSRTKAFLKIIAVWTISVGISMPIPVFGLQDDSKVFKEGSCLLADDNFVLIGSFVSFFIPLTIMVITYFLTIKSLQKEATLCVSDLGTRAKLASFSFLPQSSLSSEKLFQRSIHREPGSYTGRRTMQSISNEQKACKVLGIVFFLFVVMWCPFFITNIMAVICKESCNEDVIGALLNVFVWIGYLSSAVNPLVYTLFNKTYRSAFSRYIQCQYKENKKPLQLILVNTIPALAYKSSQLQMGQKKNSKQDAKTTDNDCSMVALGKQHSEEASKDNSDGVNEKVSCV

Row | SMILES | pKi (5-HT2A receptor) | pKi [1] | pKi (5-HT1A receptor) | mean HTR (C57BL/6 mice) | HTR compared with the HTR response for 5-Br-DMT (one-way ANOVA, Dunnett) (C57BL/6 mice) | HTR (C57BL/6 mice; 7 mg/kg i.p.) | HTR (C57BL/6 mice; 10 mg/kg i.p. (maximum dose)) | HTR over increasing dosage (C57BL/6 mice; 0.5-10 mg/kg i.p., 0-15 min)
1 | CN(C)CCc1c[nH]c2cc(N3CCC3)ccc12 [Compound (XII)] | 4.63 | 5.77 | 4.68 | 6.25 | not statistically significantly higher | ~20 | ~12 | –
2 | CN(C)CCc1c[nH]c2cc(N3CCCC3)cc(F)c12 [Compound (XVIII)] | 5.21 | 4.41 | 4.74 | 5.25 | not statistically significantly higher | – | > 20 | –
3 | CC(C)N(C)CCc1c[nH]c2cc(N3CCOCC3)c(F)cc12 [Compound (XVII)] | 5.08 | – | – | 22.25 | – | – | ~40 | –
4 | CN(C)CCc1c[nH]c2cc(F)cc(N3CCOCC3)c12 [Compound (XV)] | 6.14 | 5.04 | 5.74 | 5.0±0.82 | not statistically significantly higher | – | – | remains low
